{"source": "patent US5556744A", "about": "“Methods and compositions for diagnosing and treating certain HIV infected patients” (The Trustees of the University of Pennsylvania, priority 1994, dated 1996)", "key": {"[1]": {"test_system": "maternal serum samples (antibodies)", "test": "ELISA peptide-binding of maternal sera, expanded peptide collection (Example 5)", "set-up": "species or system human", "method_in_brief": "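Maternal sera diluted 1:50 or 1:500 in 1% BSA/PBS/0.05% Tween 20 were tested by ELISA on 10 μg/mL HIV IIIB gp120/gp41 peptides (~18 residues, ≥85% pure). Binding scored positive at experimental/control OD450nm ratio ≥2; HIV-seronegative human sera served as controls.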"}, "HIV-1": {"test_system": "HIV-1", "details": "cited from earlier work"}, "[2]": {"test_system": "maternal sera (antibodies)", "test": "ELISA peptide-binding of maternal sera (Example 6)", "set-up": "species or system human", "method_in_brief": "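HIV-1 envelope peptides averaging 16 amino acids, covering external and transmembrane glycoprotein, were probed by ELISA. Third-trimester maternal sera, classed as transmitter or non-transmitter by child diagnosis, were each run on at least 40 peptides. Values give percent of sera binding a peptide.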"}}, "data": [{"sequence": "CFRPGGGDMRDNWREL [Peptide 466]", "values": [{"measurement": "Number of non-transmission sera that reacted with the peptide", "setting": "[1]; of 13 non-transmission sera", "value": 3}, {"measurement": "Neutralizing activity of antisera generated to the peptide", "setting": "HIV-1; antisera (animals)", "value": "exhibit neutralizing activity"}, {"measurement": "Antisyncytial and neutralizing activities elicited by the peptide", "setting": "HIV-1; in words, Example 5", "value": "can elicit both antisyncytial and neutralizing activities"}, {"measurement": "Number of Non-Transmitters which bound to peptide", "setting": "[2]; Non-Transmitters, N = 12", "value": 0}, {"measurement": "Percent of Non-Transmitters which bound to peptide", "setting": "[2]; Non-Transmitters, N = 12", "value": 0, "unit": "%"}, {"measurement": "Number of Transmitters which bound to peptide", "setting": "[2]; Transmitters, N = 4", "value": 0}, {"measurement": "Percent of Transmitters which bound to peptide", "setting": "[2]; Transmitters, N = 4", "value": 0, "unit": "%"}]}, {"sequence": "TLPCASDAKAYDTEV [Peptide 93]", "values": [{"measurement": "Binding / reactivity of maternal sera to peptide (in words)", "setting": "[1]; Example 5", "value": "Differences in binding between the transmission and non-transmission groups are noted"}]}]}
